Data from ChEMBL document CHEMBL5352415, “Discovery of new macrophage M2 polarization modulators as multiple sclerosis treatment agents that enable the inflammation microenvironment remodeling” (Eur J Med Chem, 2022).
Activity calls are given as the source filed them. The calls are words filed in the database; no cut-off is given here.

What was measured:
Mus musculus [1] = assay: Anti-inflammatory activity in MOG (35 to 55 residues)/pertussis toxin-induced experimental autoimmune encephalomyelitis C57BL/6 mouse model assessed as decrease in infiltrated inflammatory cells administered orally once daily starting from day 7 to day 20 by H&E staining based analysis; assay type: functional, organism-based; details: dose 75-150 mg/kg, route po, time 14.0 day
[2] = Cmax in ICR mouse at 50 mg/kg, po measured upto 24 hrs by LC/MS analysis; assay type: ADME, organism-based; design: dose 50 mg/kg, time < 24 hrs, route po; details: in vivo
[3] = Induction of M2 macrophage polarization in C57BL/6 mouse BMDM cells assessed as fold increase in Arg1 gene level at 1 uM incubated for 24 hrs by qRT-PCR analysis; assay type: functional
[4] = Inhibition of M1 macrophage polarization in C57BL/6 mouse BMDM cells assessed as fold change in IL-6 gene level at 1 uM incubated for 24 hrs by qRT-PCR analysis (reference value: 1); assay type: functional
Mus musculus [5] = assay: (§1) Anti-inflammatory activity in MOG (35 to 55 residues)/pertussis toxin-induced experimental autoimmune encephalomyelitis C57BL/6 mouse model assessed as decrease in disease progression by measuring cumulative score at 75 to 150 mg/kg, po administered once daily starting from day 7 to day 20; assay type: functional, organism-based; details: dose 75-150 mg/kg, time 14.0 day
[6] = Inhibition of LPS-induced M1 macrophage polarization in C57BL/6 mouse BMDM cells assessed as fold change in IL-1beta gene level at 1 uM preincubated with LPS for 24 hrs followed by compound addition and measured after 24 hrs by qRT-PCR analysis (reference value: 44.88 +/- 1.99); assay type: functional
[7] = Inhibition of M1 macrophage polarization in C57BL/6 mouse BMDM cells assessed as fold change in IL-1beta gene level at 1 uM incubated for 24 hrs by qRT-PCR analysis (reference value: 1); assay type: functional
Mus musculus [8] = assay: Anti-inflammatory activity in MOG (35 to 55 residues)/pertussis toxin-induced experimental autoimmune encephalomyelitis C57BL/6 mouse model assessed as inhibition of CD4+ T cell differentiation by measuring reduction in Th1 (IFN-gamma+) cells in DLN administered orally once daily starting from day 7 to day 20 by flow cytometric analysis; assay type: functional, organism-based; details: dose 75-150 mg/kg, route po, time 14.0 day
[9] = Inhibition of LPS-induced M1 macrophage polarization in C57BL/6 mouse BMDM cells assessed as fold decrease in Inos gene level at 1 uM preincubated with LPS for 24 hrs followed by compound addition and measured after 24 hrs by qRT-PCR analysis (reference value: 524.05 +/- 24.75); assay type: functional
Mus musculus [10] = assay: as §1, with “F4/80+ CD86+ M1 macrophage in spleen” for “disease progression by measuring cumulative score”, “20 by flow cytometric analysis” for “20”; assay type: functional, organism-based; details: dose 75-150 mg/kg, time 14.0 day

Cl.Cn1ncc(Br)c1-c1ccc(C(=O)N[C@@H]2CNCC[C@H]2c2ccc(F)c(F)c2)cc1C1CC1
Activity (Mus musculus [1]): Dose-Dependent Effect | Cmax [2]: 1990 ng/mL | fold change (FC) [3]: 10.28 | fold change (FC) [4]: 2.22 | Activity (Mus musculus [5]): Active | fold change (FC) [6]: 71.77 | fold change (FC) [7]: 4.15 | Activity (Mus musculus [8]): Dose-Dependent Effect | fold change (FC) [9]: 195.4 | Activity (Mus musculus [10]): Active
